Laboratory results: US11530206B2, “Phenylaminopyrimidine amide autophagy inhibitors and methods of use thereof” (Deciphera Pharmaceuticals, LLC, priority 2019, dated 2022)

Test system: ULK kinase
Assay: pATG13 levels of mutant KRas A549 cells after treatment with ULK inhibitors in combination with trametinib (ELISA)
Format: cell-based, human
Conditions: A549 (KRAS mutant) lung cancer cells, 250 nM trametinib, overnight, pS318-ATG13
Summary of the method: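 Lysates with phosphatase/protease inhibitors assayed by pATG13 ELISA, A450 minus A540 background and blank-corrected. % ATG13 phosphorylation versus DMSO controls fitted to IC50.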

Row | IC50 | SMILES
1 | 10 to 100 nM | CCc1cc(N2CCNCC2)ccc1Nc1ncc(C(F)(F)F)c(NCCCN2CCCOC2=O)n1 [Example 46]
2 | 10 to 100 nM | CN1CCN(c2ccc(Nc3ncc(C(F)(F)F)c(NCCCN4CCCOCC4=O)n3)c(C3CC3)c2)CC1 [Example 52]
3 | 10 to 100 nM | CN1CCN(c2ccc(Nc3ncc(C(F)(F)F)c(NCCCN4CCOCCC4=O)n3)c(C3CC3)c2)CC1 [Example 70]
4 | 10 to 100 nM | CCc1cc(N2CCN(C)CC2)c(F)cc1Nc1ncc(C(F)(F)F)c(NCCCN2CCOCCC2=O)n1 [Example 86]
5 | 10 to 100 nM | O=C1OCCCN1CCCNc1nc(Nc2ccc(N3CCNCC3)cc2C2CC2)ncc1C(F)(F)F [Example 99]
6 | 10 to 100 nM | CCc1cc(N2CCNCC2)ccc1Nc1ncc(C(F)(F)F)c(NCCCN2CCOCCC2=O)n1 [Example 84]
7 | 10 to 100 nM | CCc1cc(N2CCN(C)CC2)ccc1Nc1ncc(Br)c(NCCCN2CCOCCC2=O)n1 [Example 76]
8 | 10 to 100 nM | CN1CCN(c2ccc(Nc3ncc(C(F)(F)F)c(NCCCN4CCCCC4=O)n3)c(C3CC3)c2)CC1 [Example 14]
9 | 10 to 100 nM | CN1CCN(c2ccc(Nc3ncc(C(F)(F)F)c(NCCCN4CCCOC4=O)n3)c(C3CC3)c2)CC1 [Example 41]
10 | 10 to 100 nM | CCc1cc(N2CCN(C)CC2)ccc1Nc1ncc(C(F)(F)F)c(NCCCN2CCCOC2=O)n1 [Example 39]
11 | 100 to 300 nM | CN1CCN(c2ccc(Nc3ncc(Cl)c(NCCCN4CCCOCC4=O)n3)c(C3CC3)c2)CC1 [Example 55]

Row | SMILES | IC50
12 | CCc1cc(N2CC3CCC(C2)N3C)ccc1Nc1ncc(C(F)(F)F)c(NCCCN2CCOCCC2=O)n1 [Example 74] | 10 to 100 nM

Test system: ULK kinase
Assay: pATG13 levels of mutant KRas MiaPaCa-2 cells after treatment with ULK inhibitors in combination with trametinib (ELISA)
Format: cell-based, human
Conditions: MiaPaCa-2 pancreatic cancer cells, 250 nM trametinib, overnight, pS318-ATG13
Summary of the method: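 MiaPaCa-2 cells in DMEM with 10% FBS and 2.5% horse serum were pretreated with trametinib or DMSO, then given a test-compound dose response overnight at 37° C. Lysates were assayed for phospho-ATG13 by ELISA (A450 minus A540 background, blank-corrected). % phosphorylation was calculated relative to controls and fitted to IC50.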

Row | IC50 | SMILES
13 | 10 to 100 nM | CCc1cc(N2CCNCC2)ccc1Nc1ncc(C(F)(F)F)c(NCCCN2CCCOC2=O)n1 [Example 46]
14 | 10 to 100 nM | CN1CCN(c2ccc(Nc3ncc(C(F)(F)F)c(NCCCN4CCCOCC4=O)n3)c(C3CC3)c2)CC1 [Example 52]
15 | 10 to 100 nM | CN1CCN(c2ccc(Nc3ncc(C(F)(F)F)c(NCCCN4CCOCCC4=O)n3)c(C3CC3)c2)CC1 [Example 70]
16 | 10 to 100 nM | CCc1cc(N2CCN(C)CC2)c(F)cc1Nc1ncc(C(F)(F)F)c(NCCCN2CCOCCC2=O)n1 [Example 86]
17 | 100 to 300 nM | O=C1OCCCN1CCCNc1nc(Nc2ccc(N3CCNCC3)cc2C2CC2)ncc1C(F)(F)F [Example 99]
18 | 10 to 100 nM | CCc1cc(N2CCNCC2)ccc1Nc1ncc(C(F)(F)F)c(NCCCN2CCOCCC2=O)n1 [Example 84]
19 | 10 to 100 nM | CCc1cc(N2CCN(C)CC2)ccc1Nc1ncc(Br)c(NCCCN2CCOCCC2=O)n1 [Example 76]
20 | 10 to 100 nM | CN1CCN(c2ccc(Nc3ncc(C(F)(F)F)c(NCCCN4CCCCC4=O)n3)c(C3CC3)c2)CC1 [Example 14]
21 | 10 to 100 nM | CN1CCN(c2ccc(Nc3ncc(C(F)(F)F)c(NCCCN4CCCOC4=O)n3)c(C3CC3)c2)CC1 [Example 41]
22 | 10 to 100 nM | CCc1cc(N2CCN(C)CC2)ccc1Nc1ncc(C(F)(F)F)c(NCCCN2CCCOC2=O)n1 [Example 39]
23 | 10 to 100 nM | CN1CCN(c2ccc(Nc3ncc(Cl)c(NCCCN4CCCOCC4=O)n3)c(C3CC3)c2)CC1 [Example 55]

Row | SMILES | IC50
24 | CCc1cc(N2CC3CCC(C2)N3C)ccc1Nc1ncc(C(F)(F)F)c(NCCCN2CCOCCC2=O)n1 [Example 74] | 10 to 100 nM

Test system: ULK kinase
Assay: pATG13 levels of mutant KRas HCT-116 cells after treatment with ULK inhibitors in combination with trametinib (ELISA)
Format: cell-based, human
Conditions: HCT-116 colon cancer cells, 250 nM trametinib, overnight, pS318-ATG13
Procedure: The following day, 10 μL of media containing trametinib or DMSO as a control was added to wells. […] A dose response of a test compound (0.6 μL per well) was added. DMSO (0.6 μL) was added to control wells. The plate was briefly shaken to mix wells and then incubated at 37° C. overnight. The next day, the media was aspirated and cells were washed with Dulbecco's Phosphate Buffered Saline (Gibco). Cells were lysed using MPER lysis buffer (Pierce, Rockford, Ill.) containing Halt Phosphatase and Protease Inhibitors (Pierce, Rockford, Ill.) and Phosphatase inhibitor cocktail 2 (Sigma, St. Louis, Mo.) at 4° C. for 10 minutes with shaking.
Plate wells were washed with ELISA wash buffer. Cell lysate was added to wells and incubated at room temperature for 2 hours. Plate wells were washed with ELISA wash buffer. […] Plate wells were washed with ELISA wash buffer. […] Plate wells were washed with ELISA wash buffer. […] The reaction was stopped with 2N Sulfuric Acid. The plate was analyzed at on a plate reader measuring absorbance at 450 nm and 540 nm (background). Signal was calculated by first subtracting the background absorbance at 540 nm from the absorbance at 450 nm for each well. Next, the background corrected absorbance at 450 nm from blank wells was subtracted from test wells. Data was compared to control wells to determine % ATG13 phosphorylation. GraphPad Prism was used to calculate IC50 values.

Row | IC50 | SMILES
25 | 100 to 300 nM | CCc1cc(N2CCNCC2)ccc1Nc1ncc(C(F)(F)F)c(NCCCN2CCCOC2=O)n1 [Example 46]
26 | 10 to 100 nM | CN1CCN(c2ccc(Nc3ncc(C(F)(F)F)c(NCCCN4CCCOCC4=O)n3)c(C3CC3)c2)CC1 [Example 52]
27 | 10 to 100 nM | CN1CCN(c2ccc(Nc3ncc(C(F)(F)F)c(NCCCN4CCOCCC4=O)n3)c(C3CC3)c2)CC1 [Example 70]
28 | 100 to 300 nM | CCc1cc(N2CCN(C)CC2)c(F)cc1Nc1ncc(C(F)(F)F)c(NCCCN2CCOCCC2=O)n1 [Example 86]
29 | 10 to 100 nM | CCc1cc(N2CCNCC2)ccc1Nc1ncc(C(F)(F)F)c(NCCCN2CCOCCC2=O)n1 [Example 84]
30 | 10 to 100 nM | CCc1cc(N2CCN(C)CC2)ccc1Nc1ncc(Br)c(NCCCN2CCOCCC2=O)n1 [Example 76]
31 | 10 to 100 nM | CN1CCN(c2ccc(Nc3ncc(C(F)(F)F)c(NCCCN4CCCCC4=O)n3)c(C3CC3)c2)CC1 [Example 14]
32 | 10 to 100 nM | CN1CCN(c2ccc(Nc3ncc(C(F)(F)F)c(NCCCN4CCCOC4=O)n3)c(C3CC3)c2)CC1 [Example 41]
33 | 10 to 100 nM | CCc1cc(N2CCN(C)CC2)ccc1Nc1ncc(C(F)(F)F)c(NCCCN2CCCOC2=O)n1 [Example 39]
34 | 10 to 100 nM | CN1CCN(c2ccc(Nc3ncc(Cl)c(NCCCN4CCCOCC4=O)n3)c(C3CC3)c2)CC1 [Example 55]

Row | SMILES | IC50
35 | CCc1cc(N2CC3CCC(C2)N3C)ccc1Nc1ncc(C(F)(F)F)c(NCCCN2CCOCCC2=O)n1 [Example 74] | 10 to 100 nM

Target: T1, LRRK2 kinase (Homo sapiens, UniProt Q5S007)
T1 construct: purchased Thermo Fisher
Assay: Biochemical assay for LRRK2 (coupled pyruvate kinase/lactate dehydrogenase assay)
Conditions: 26.4 nM LRRK2 (residues 970-2528), peptide substrate, 1 mM ATP
Summary of the method: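 Recombinant LRRK2 (26.4 nM) with 0.1 mM peptide substrate and 1 mM ATP in Tris pH 7.5/MgCl2 buffer; ADP production coupled via PK/LDH to NADH oxidation, A340 read continuously 6 h at 30 °C. Rates from 2–3 h window converted to % inhibition versus no-compound and reference-inhibitor controls; IC50 fitted.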

T1 sequence (Q5S007 with tags, fused parts or gaps): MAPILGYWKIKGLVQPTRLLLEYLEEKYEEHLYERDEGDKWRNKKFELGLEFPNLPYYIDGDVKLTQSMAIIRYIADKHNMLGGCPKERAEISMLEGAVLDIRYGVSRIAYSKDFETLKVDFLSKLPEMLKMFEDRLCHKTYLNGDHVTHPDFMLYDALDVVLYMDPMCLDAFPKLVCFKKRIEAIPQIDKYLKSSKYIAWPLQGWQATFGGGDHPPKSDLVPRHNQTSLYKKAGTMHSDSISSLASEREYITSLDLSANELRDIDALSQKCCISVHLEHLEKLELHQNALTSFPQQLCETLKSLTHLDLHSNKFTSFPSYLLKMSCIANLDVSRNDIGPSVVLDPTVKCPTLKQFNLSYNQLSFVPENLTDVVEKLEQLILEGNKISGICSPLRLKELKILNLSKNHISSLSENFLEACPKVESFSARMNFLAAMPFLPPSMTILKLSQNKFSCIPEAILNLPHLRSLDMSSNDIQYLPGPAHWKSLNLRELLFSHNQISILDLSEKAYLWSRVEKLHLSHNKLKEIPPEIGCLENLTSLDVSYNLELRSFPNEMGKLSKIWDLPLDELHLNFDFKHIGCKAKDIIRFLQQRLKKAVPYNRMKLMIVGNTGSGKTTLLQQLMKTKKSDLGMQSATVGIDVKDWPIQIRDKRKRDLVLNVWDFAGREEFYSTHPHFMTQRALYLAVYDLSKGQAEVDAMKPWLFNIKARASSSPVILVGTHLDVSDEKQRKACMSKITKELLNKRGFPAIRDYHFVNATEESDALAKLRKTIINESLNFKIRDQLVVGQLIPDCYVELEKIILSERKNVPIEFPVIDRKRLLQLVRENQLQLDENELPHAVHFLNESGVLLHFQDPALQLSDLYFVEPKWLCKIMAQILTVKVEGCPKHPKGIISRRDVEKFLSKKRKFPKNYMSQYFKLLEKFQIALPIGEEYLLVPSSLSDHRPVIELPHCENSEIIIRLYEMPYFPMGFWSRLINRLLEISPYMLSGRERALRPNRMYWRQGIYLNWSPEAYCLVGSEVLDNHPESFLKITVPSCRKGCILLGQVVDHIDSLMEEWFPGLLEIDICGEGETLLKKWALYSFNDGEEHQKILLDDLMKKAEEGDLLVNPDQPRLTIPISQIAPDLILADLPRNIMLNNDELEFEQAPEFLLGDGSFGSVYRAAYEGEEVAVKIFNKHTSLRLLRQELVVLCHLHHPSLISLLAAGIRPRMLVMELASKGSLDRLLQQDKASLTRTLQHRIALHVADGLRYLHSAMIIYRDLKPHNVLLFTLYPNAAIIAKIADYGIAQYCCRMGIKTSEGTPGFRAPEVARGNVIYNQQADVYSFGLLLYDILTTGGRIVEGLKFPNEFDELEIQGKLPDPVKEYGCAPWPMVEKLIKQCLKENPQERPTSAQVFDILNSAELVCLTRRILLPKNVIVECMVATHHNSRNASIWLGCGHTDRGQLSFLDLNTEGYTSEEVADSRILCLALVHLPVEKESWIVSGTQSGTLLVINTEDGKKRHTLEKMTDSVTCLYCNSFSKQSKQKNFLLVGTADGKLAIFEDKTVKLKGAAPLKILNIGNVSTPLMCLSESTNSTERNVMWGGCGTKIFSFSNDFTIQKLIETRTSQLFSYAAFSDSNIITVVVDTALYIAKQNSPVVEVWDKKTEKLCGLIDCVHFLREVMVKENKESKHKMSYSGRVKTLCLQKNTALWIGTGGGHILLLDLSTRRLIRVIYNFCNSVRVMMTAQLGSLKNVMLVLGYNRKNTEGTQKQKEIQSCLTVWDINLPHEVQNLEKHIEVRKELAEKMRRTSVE

Row | IC50 | SMILES
36 | 100 to 300 nM | CCc1cc(N2CCNCC2)ccc1Nc1ncc(C(F)(F)F)c(NCCCN2CCCOC2=O)n1 [Example 46]
37 | 1 to 100 nM | CN1CCN(c2ccc(Nc3ncc(C(F)(F)F)c(NCCCN4CCCOCC4=O)n3)c(C3CC3)c2)CC1 [Example 52]
38 | 1 to 100 nM | CN1CCN(c2ccc(Nc3ncc(C(F)(F)F)c(NCCCN4CCOCCC4=O)n3)c(C3CC3)c2)CC1 [Example 70]
39 | 1 to 100 nM | CCc1cc(N2CCN(C)CC2)c(F)cc1Nc1ncc(C(F)(F)F)c(NCCCN2CCOCCC2=O)n1 [Example 86]
40 | 1 to 100 nM | O=C1OCCCN1CCCNc1nc(Nc2ccc(N3CCNCC3)cc2C2CC2)ncc1C(F)(F)F [Example 99]
41 | 100 to 300 nM | CCc1cc(N2CCNCC2)ccc1Nc1ncc(C(F)(F)F)c(NCCCN2CCOCCC2=O)n1 [Example 84]
42 | 100 to 300 nM | CCc1cc(N2CCN(C)CC2)ccc1Nc1ncc(Br)c(NCCCN2CCOCCC2=O)n1 [Example 76]
43 | 1 to 100 nM | CN1CCN(c2ccc(Nc3ncc(C(F)(F)F)c(NCCCN4CCCCC4=O)n3)c(C3CC3)c2)CC1 [Example 14]
44 | 1 to 100 nM | CN1CCN(c2ccc(Nc3ncc(C(F)(F)F)c(NCCCN4CCCOC4=O)n3)c(C3CC3)c2)CC1 [Example 41]
45 | 1 to 100 nM | CCc1cc(N2CCN(C)CC2)ccc1Nc1ncc(C(F)(F)F)c(NCCCN2CCCOC2=O)n1 [Example 39]
46 | 100 to 300 nM | CN1CCN(c2ccc(Nc3ncc(Cl)c(NCCCN4CCCOCC4=O)n3)c(C3CC3)c2)CC1 [Example 55]

Row | SMILES | IC50
47 | CCc1cc(N2CC3CCC(C2)N3C)ccc1Nc1ncc(C(F)(F)F)c(NCCCN2CCOCCC2=O)n1 [Example 74] | 300 to 600 nM
